Here are results for 16 molecules from patent US20240383908A1, “SYNTHESIS AND APPLICATION OF PHOSPHATASE DEGRADER” (HINOVA PHARMACEUTICALS INC., priority 2021, published 2024).

In this assay the target is T1, SHP2 protein (Homo sapiens, UniProt Q06124).
T1 sequence (Q06124 1-593): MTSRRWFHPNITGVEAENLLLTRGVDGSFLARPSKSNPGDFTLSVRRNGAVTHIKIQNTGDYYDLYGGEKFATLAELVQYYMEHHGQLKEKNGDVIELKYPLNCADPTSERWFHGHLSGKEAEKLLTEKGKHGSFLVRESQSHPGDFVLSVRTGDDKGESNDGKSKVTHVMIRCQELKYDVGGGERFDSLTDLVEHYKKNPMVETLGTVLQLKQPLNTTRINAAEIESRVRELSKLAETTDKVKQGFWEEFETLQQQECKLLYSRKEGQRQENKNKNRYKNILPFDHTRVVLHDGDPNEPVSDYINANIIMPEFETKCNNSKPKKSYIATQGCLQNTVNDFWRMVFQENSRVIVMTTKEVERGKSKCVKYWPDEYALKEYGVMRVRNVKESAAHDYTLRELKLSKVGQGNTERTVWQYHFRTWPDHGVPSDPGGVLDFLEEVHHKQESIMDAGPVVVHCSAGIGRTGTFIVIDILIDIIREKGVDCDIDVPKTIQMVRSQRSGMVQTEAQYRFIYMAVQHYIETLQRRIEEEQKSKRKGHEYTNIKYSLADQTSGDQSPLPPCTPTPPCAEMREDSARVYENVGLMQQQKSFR
Kind of assay: Degradation activity on SHP2 protein in MV-411 cells (Western blot, DC50). Conditions: MV411 cells, 24 hours, read-out: Degradation activity for differenct cell lines MV411 (DC50). The format is cell-based. On the set-up: endogenous in cells. A digest of the protocol:
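Western blot of SHP2 (GAPDH loading control, 30 μg protein/lane) in lysates of MV-411 cells exposed 24 h to final compound concentrations of 100, 10, 3, 1, 0.3 and 0.1 nM (0.1% DMSO). Degradation relative to DMSO set at 100%; DC50 derived by curve fitting.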
For `CN(Cc1ccc2c(c1)CN(C1CCC(=O)NC1=O)C2=O)C(=O)c1ccc(N2CCC3(CN(CCCCCCC(=O)Nc4cccc(Sc5cnc(N6CCC(C)(N)CC6)cn5)c4)C3)C2)nn1` (stereo not shown) [Compound 152], the DC50 was < 100 nM.
The same measure for `CC1(N)CCN(c2cnc(Sc3cccc(NC(=O)CCCCCCCOC4CCN(c5ccc(C(=O)NCc6ccc7c(c6)CN(C6CCC(=O)NC6=O)C7=O)nn5)CC4(F)F)c3)cn2)CC1` (stereo not shown) [Compound 153]: < 100 nM; for `CC1(N)CCN(c2cnc(Sc3cccc(NC(=O)CCCCCCN4CC5(CCN(C6CCC(C(=O)NCc7ccc8c(c7)CN(C7CCC(=O)NC7=O)C8=O)CC6)C5)C4)c3)cn2)CC1` (stereo not shown) [Compound 158, 4-(2-(7-((3-((5-(4-amino-4-methylpyridin-1-yl)pyrazin-2-yl)thio)phenyl)amino)-7-oxoheptyl)-2,6-diazaspiro[3.4]octan6-yl)-N-((2-(2,6-dioxopiperidin-3-yl)-1-oxoisoindol-5-yl)methyl)cyclohexane-1-formamide]: 100 to 1000 nM.
For `CCC1(N)CCN(c2cnc(Sc3cccc(NC(=O)CCCCCCN4CC5(CCN(c6ccc(C(=O)N(C)Cc7ccc8c(c7)CN(C7CCC(=O)NC7=O)C8=O)nn6)C5)C4)c3)cn2)CC1` (stereo not shown) [Compound 162] the value was < 100 nM.
For `CN(Cc1ccc2c(c1)CN(C1CCC(=O)NC1=O)C2=O)C(=O)c1ccc(N2CC[C@@H](OCCCCCCCC(=O)Nc3cccc(Sc4cnc(N5CCC(C)(N)CC5)cn4)c3)[C@@H](F)C2)nn1` (stereo partly shown) [Compound 163] the value was < 100 nM; for `CC1(N)CCN(c2cnc(Sc3cccc(NC(=O)CCCCCN4CC5(CCN(c6ccc(C(=O)NCc7ccc8c(c7)CN(C7CCC(=O)NC7=O)C8=O)nn6)C5)C4)c3)cn2)CC1` (stereo not shown) [Compound 164], < 100 nM.
Consider `CN(Cc1ccc2c(c1)CN(C1CCC(=O)NC1=O)C2=O)C(=O)c1ccc(N2CCC3(CN(CCCCCC(=O)Nc4cccc(Sc5cnc(N6CCC(C)(N)CC6)cn5)c4)C3)C2)nn1` (stereo not shown) [Compound 165], for which the 50% degradation concentration (DC50) is < 100 nM.
The same measure for `CN(Cc1ccc2c(c1)CN(C1CCC(=O)NC1=O)C2=O)C(=O)c1ccc(N2CCC3(CC(OCCCCCC(=O)Nc4cccc(Sc5cnc(N6CCC(C)(N)CC6)cn5)c4)C3)C2)nn1` (stereo not shown) [Compound 167]: < 100 nM.
Regarding `CN(Cc1ccc2c(c1)CN(C1CCC(=O)NC1=O)C2=O)C(=O)c1ccc(N2CCC3(CN(CCCCCCC(=O)Nc4cccc(Sc5cnc(N6CCC(N)(CO)CC6)cn5)c4)C3)C2)nn1` (stereo not shown) [Compound 169], the DC50 is < 100 nM.
For `CN(Cc1ccc2c(c1)CN(C1CCC(=O)NC1=O)C2=O)C(=O)c1cnc(N2CCC3(CN(CCCCCCC(=O)Nc4cccc(Sc5cnc(N6CCC(C)(N)CC6)cn5)c4)C3)C2)c(C(F)(F)F)c1` (stereo not shown) [Compound 171], the 50% degradation concentration (DC50) was < 100 nM.
For `CC1(N)CCN(c2cnc(Sc3cccc(NC(=O)CCCCCCCN4CC5(CC(n6cc(C#Cc7ccc8c(c7)CN(C7CCC(=O)NC7=O)C8=O)cn6)C5)C4)c3)cn2)CC1` (stereo not shown) [Compound 172] the value was < 100 nM.
In the case of `CN(Cc1ccc2c(c1)CN(C1CCC(=O)NC1=O)C2=O)C(=O)c1ccc(N2CCC(OCCCCCCCC(=O)Nc3cccc(Sc4cnc(N5CCC(C)(N)CC5)cn4)c3)C(F)(F)C2)nn1` (stereo not shown) [Compound 173], the half-maximal degradation concentration (DC50) was < 100 nM.
The same measure for `CN(Cc1ccc2c(c1)CN(C1CCC(=O)NC1=O)C2=O)C(=O)c1cnc(N2CCC3(CN(CCCCCCC(=O)Nc4cccc(Sc5cnc(N6CCC(C)(N)CC6)cn5)c4)C3)C2)cn1` (stereo not shown) [Compound 180]: < 100 nM; for `CN(Cc1ccc2c(c1)CN(C1CCC(=O)NC1=O)C2=O)C(=O)c1cnc(N2CCC3(CN(CCCCCCC(=O)Nc4cccc(Sc5cnc(N6CCC(C)(N)CC6)cn5)c4)C3)C2)c(Cl)c1` (stereo not shown) [Compound 182]: < 100 nM; for `CN(Cc1ccc2c(c1)CN(C1CCC(=O)NC1=O)C2=O)C(=O)c1ccc(N2CC3CC(OCCCCCCC(=O)Nc4cccc(Sc5cnc(N6CCC(C)(N)CC6)cn5)c4)CC3C2)nn1` (stereo not shown) [Compound 184]: < 100 nM.
Regarding `CCCCCOC(=O)NC1(C)CCN(c2cnc(Sc3cccc(NC(=O)CCCCCCN4CC5(CCN(c6ccc(C(=O)NCc7ccc8c(c7)CN(C7CCC(=O)NC7=O)C8=O)nn6)C5)C4)c3)cn2)CC1` (stereo not shown) [Compound 187], the DC50 is > 1000 nM.
